The record followed here is article PMC11648230, “Structure–function analysis of tRNA t^6A-catalysis, assembly, and thermostability of Aquifex aeolicus TsaD2B2 tetramer in complex with TsaE” (The Journal of Biological Chemistry, 2024).

In the assay the target is T1, A. aeolicus TsaD2B2 (TsaD-TsaB) (Aquifex aeolicus, UniProt O66986).
T1 construct: recombinant from E. coli; co-expressed (pET21a-BC10_DZop), C-terminal 6His on TsaB; tetramer; Cys10 of TsaD oxidized (CSO10) in crystals; with tRNA threonylcarbamoyladenosine biosynthesis protein TsaB
Briefly: LC-MS of tRNA t6A formation. It counts as biochemical. The following applies: isolated TC-AMP 30 uM, EDTA-dialyzed TsaD2B2 plus MgCl2, FeCl2 or ZnCl2 100 uM, 60 uM tRNA-Lys(UUU), no TsaE.

T1 sequence (O66494 entry or part of it): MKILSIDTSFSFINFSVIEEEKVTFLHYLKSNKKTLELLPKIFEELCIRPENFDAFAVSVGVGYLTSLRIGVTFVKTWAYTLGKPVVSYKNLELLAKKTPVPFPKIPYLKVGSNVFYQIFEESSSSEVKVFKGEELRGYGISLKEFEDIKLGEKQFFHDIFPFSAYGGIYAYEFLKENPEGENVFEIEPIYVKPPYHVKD
T1 sequence (O66986 whole entry): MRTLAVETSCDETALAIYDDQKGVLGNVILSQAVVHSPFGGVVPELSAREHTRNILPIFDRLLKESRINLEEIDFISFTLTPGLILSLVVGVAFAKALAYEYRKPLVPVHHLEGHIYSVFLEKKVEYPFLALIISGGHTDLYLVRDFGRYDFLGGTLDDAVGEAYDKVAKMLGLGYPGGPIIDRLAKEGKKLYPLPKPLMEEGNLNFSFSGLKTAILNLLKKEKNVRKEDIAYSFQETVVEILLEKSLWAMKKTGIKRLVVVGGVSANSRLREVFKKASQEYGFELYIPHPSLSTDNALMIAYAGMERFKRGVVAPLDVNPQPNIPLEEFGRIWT

Regarding `C[C@@H](O)[C@H](NC(=O)OP(=O)(O)OC[C@H]1O[C@@H](n2cnc3c(N)ncnc32)[C@H](O)[C@@H]1O)C(=O)O` [TC-AMP], the “LC-MS of tRNA t6A formation” value is “we only used EDTA-dialyzed TsaD2B2, HPLC-purified TC-AMP, and SEC-purified IVT tRNA^LysUUU”.
